In ChEMBL document CHEMBL1201862, “PubChem BioAssay data set” (2004):
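Cells were grown in 96-well plates and exposed to each compound for 48 hours at five concentrations; endpoints were interpolated linearly between bracketing concentrations, or set to the highest concentration if not reached. GI50: concentration for 50% inhibition of growth.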 Calls of active or inactive are those of the source. Cut-off read from the data, not from the text of the source: active = GI50 up to about 1.1 µM and inactive = higher.

Columns and labels:
Test in all cases: growth of human tumour cells (NCI), 48 h
A498 = system: A498
K562 = system: K562
CCRF-CEM = system: CCRF-CEM
A549 = system: A549
OVCAR-3 = system: OVCAR-3
UACC-257 = system: UACC-257
SK-MEL-28 = system: SK-MEL-28
SF-295 = system: SF-295
MOLT-4 = system: MOLT-4
SK-OV-3 = system: SK-OV-3
SK-MEL-2 = system: SK-MEL-2
OVCAR-8 = system: OVCAR-8
NCI/ADR-RES = system: NCI/ADR-RES
SNB-75 = system: SNB-75
NCI-H522 = system: NCI-H522
SNB-78 = system: SNB-78
DLD-1 = system: DLD-1
IGROV-1 = system: IGROV-1
DMS-273 = system: DMS-273
HOP-92 = system: HOP-92
KM-20L2 = system: KM-20L2
RXF 393 = system: RXF 393
LOX IMVI = system: LOX IMVI
HOP-62 = system: HOP-62
NCI-H23 = system: NCI-H23
NCI-H460 = system: NCI-H460
XF498 = system: XF498
M19-MEL = system: M19-MEL
EKVX = system: EKVX
MCF7 = system: MCF7
SF-539 = system: SF-539
HCT-15 = system: HCT-15
U-251 = system: U-251
NCI-H226 = system: NCI-H226
HOP-18 = system: HOP-18
SK-MEL-5 = system: SK-MEL-5
SN12C = system: SN12C
CAKI-1 = system: CAKI-1
OVCAR-5 = system: OVCAR-5
SNB-19 = system: SNB-19
HCC 2998 = system: HCC 2998
COLO 205 = system: COLO 205
DMS-114 = system: DMS-114
HCT-116 = system: HCT-116
Malme-3M = system: Malme-3M
UACC-62 = system: UACC-62
HL-60 = system: HL-60
SW-620 = system: SW-620
RPMI-8226 = system: RPMI-8226
OVCAR-4 = system: OVCAR-4
SF-268 = system: SF-268
UO-31 = system: UO-31
HT-29 = system: HT-29
KM12 = system: KM12
MDA-MB-435 = system: MDA-MB-435
DU-145 = system: DU-145
BT-549 = system: BT-549
PC-3 = system: PC-3
SR = system: SR
786-0 = system: 786-0
TK-10 = system: TK-10
T47D = system: T47D
MDA-N = system: MDA-N
M14 = system: M14
MDA-MB-231 = system: MDA-MB-231
Hs-578T = system: Hs-578T
ACHN = system: ACHN

COc1ccc2cc1Oc1ccc(cc1)C[C@H]1c3cc(c(OC)cc3CCN1C)Oc1c(O)c(OC)cc3c1[C@H](C2)N(C)CC3 [FANGCHINOLINE]
GI50 (A498): 18 µM (inactive)
GI50 (K562): 11.4 µM (inactive)
GI50 (CCRF-CEM): 0.0243 mM (inactive)
GI50 (A549): 31.5 µM (inactive)
GI50 (OVCAR-3): 0.0216 mM (inactive)
GI50 (UACC-257): 0.00948 mM (inactive)
GI50 (SK-MEL-28): 0.0218 mM (inactive)
GI50 (SF-295): 0.0169 mM (inactive)
GI50 (MOLT-4): 0.0117 mM (inactive)
GI50 (SK-OV-3): 0.0284 mM (inactive)
GI50 (SK-MEL-2): 0.0265 mM (inactive)
GI50 (OVCAR-8): 0.00525 mM (inactive)
GI50 (NCI/ADR-RES): 0.0294 mM (inactive)
GI50 (SNB-75): 28.7 µM (inactive)
GI50 (NCI-H522): 27.5 µM (inactive)
GI50 (SNB-78): 0.0407 mM (inactive)
GI50 (DLD-1): 0.0234 mM (inactive)
GI50 (IGROV-1): 0.0271 mM (inactive)
GI50 (DMS-273): 14.7 µM (inactive)
GI50 (HOP-92): 7.64 µM (inactive)
GI50 (KM-20L2): 1.7 µM (inactive)
GI50 (RXF 393): 0.0165 mM (inactive)
GI50 (LOX IMVI): 5.3 µM (inactive)
GI50 (HOP-62): 0.0376 mM (inactive)
GI50 (NCI-H23): 0.04 mM (inactive)
GI50 (NCI-H460): 21.8 µM (inactive)
GI50 (XF498): 27.4 µM (inactive)
GI50 (M19-MEL): 22.6 µM (inactive)
GI50 (EKVX): 0.00445 mM (inactive)
GI50 (MCF7): 26.6 µM (inactive)
GI50 (SF-539): 0.0203 mM (inactive)
GI50 (HCT-15): 0.0133 mM
GI50 (U-251): 0.0272 mM (inactive)
GI50 (NCI-H226): 0.0399 mM (inactive)
GI50 (HOP-18): 0.0322 mM (inactive)
GI50 (SK-MEL-5): 0.0136 mM (inactive)
GI50 (SN12C): 0.0388 mM (inactive)
GI50 (CAKI-1): 3.54 µM (inactive)
GI50 (OVCAR-5): 0.0463 mM (inactive)
GI50 (SNB-19): 0.0438 mM (inactive)
GI50 (HCC 2998): 17.6 µM (inactive)
GI50 (COLO 205): 15.8 µM (inactive)
GI50 (DMS-114): 24.7 µM (inactive)
GI50 (HCT-116): 0.0133 mM (inactive)
GI50 (Malme-3M): 30.7 µM (inactive)
GI50 (UACC-62): 20.7 µM (inactive)
GI50 (HL-60): 14 µM (inactive)
GI50 (SW-620): 15 µM (inactive)
GI50 (RPMI-8226): 8.91 µM (inactive)
GI50 (OVCAR-4): 0.0265 mM (inactive)
GI50 (SF-268): 0.0302 mM (inactive)
GI50 (UO-31): 25.5 µM (inactive)
GI50 (HT-29): 22.3 µM (inactive)
GI50 (KM12): 0.0168 mM (inactive)

CC(=O)NCCCCCCNC(C)=O [HEXAMETHYLENEBISACETAMIDE]
GI50 (MDA-MB-435): 4.01 mM (inactive)
GI50 (DU-145): > 8.83 mM (inactive)
GI50 (A498): 5790 µM (inactive)
GI50 (BT-549): > 10 mM (inactive)
GI50 (K562): 5740 µM (inactive)
GI50 (PC-3): 8.18 mM (inactive)
GI50 (SR): > 8.53 mM (inactive)
GI50 (CCRF-CEM): 7.67 mM (inactive)
GI50 (A549): 2290 µM (inactive)
GI50 (786-0): > 10 mM (inactive)
GI50 (OVCAR-3): 8.18 mM (inactive)
GI50 (UACC-257): 7.08 mM (inactive)
GI50 (SK-MEL-28): 6.98 mM (inactive)
GI50 (SF-295): 6.37 mM (inactive)
GI50 (MOLT-4): 7.28 mM (inactive)
GI50 (SK-OV-3): 8.93 mM (inactive)
GI50 (SK-MEL-2): 6.59 mM (inactive)
GI50 (OVCAR-8): 7.62 mM (inactive)
GI50 (NCI/ADR-RES): 7.41 mM (inactive)
GI50 (SNB-75): 2840 µM (inactive)
GI50 (NCI-H522): 3230 µM (inactive)
GI50 (SNB-78): 6.59 mM (inactive)
GI50 (DLD-1): 8.24 mM (inactive)
GI50 (IGROV-1): 9.18 mM (inactive)
GI50 (DMS-273): 3600 µM (inactive)
GI50 (HOP-92): 3560 µM (inactive)
GI50 (KM-20L2): 5220 µM (inactive)
GI50 (RXF 393): 9.86 mM (inactive)
GI50 (LOX IMVI): 4680 µM (inactive)
GI50 (HOP-62): 6.59 mM (inactive)
GI50 (NCI-H23): 9.16 mM (inactive)
GI50 (NCI-H460): 4810 µM (inactive)
GI50 (TK-10): 4.3 mM (inactive)
GI50 (XF498): 3180 µM (inactive)
GI50 (M19-MEL): 5750 µM (inactive)
GI50 (EKVX): 7.28 mM (inactive)
GI50 (MCF7): 3480 µM (inactive)
GI50 (SF-539): 6.07 mM (inactive)
GI50 (T47D): > 5.68 mM (inactive)
GI50 (HCT-15): 5.53 mM
GI50 (U-251): 7.83 mM (inactive)
GI50 (NCI-H226): 6.81 mM (inactive)
GI50 (HOP-18): 7.53 mM (inactive)
GI50 (SK-MEL-5): 6.7 mM (inactive)
GI50 (SN12C): 7.5 mM (inactive)
GI50 (CAKI-1): 1790 µM (inactive)
GI50 (OVCAR-5): 8.24 mM (inactive)
GI50 (SNB-19): 8.51 mM (inactive)
GI50 (HCC 2998): 4290 µM (inactive)
GI50 (COLO 205): 5380 µM (inactive)
GI50 (DMS-114): 3860 µM (inactive)
GI50 (HCT-116): 8.47 mM (inactive)
GI50 (Malme-3M): 3160 µM (inactive)
GI50 (UACC-62): 4050 µM (inactive)
GI50 (HL-60): 3450 µM (inactive)
GI50 (MDA-N): 7.57 mM (inactive)
GI50 (M14): 6.04 mM (inactive)
GI50 (SW-620): > 3570 µM (inactive)
GI50 (RPMI-8226): 4650 µM (inactive)
GI50 (MDA-MB-231): 4.18 mM (inactive)
GI50 (OVCAR-4): 6.55 mM (inactive)
GI50 (Hs-578T): 5.79 mM (inactive)
GI50 (SF-268): 8.91 mM (inactive)
GI50 (UO-31): 5250 µM (inactive)
GI50 (HT-29): 4840 µM (inactive)
GI50 (KM12): 8.45 mM (inactive)
GI50 (ACHN): > 10 mM (inactive)
